The structures appear in SMILES notation. Values joined by “and” are separate entries in the source; they are usually repeats but may differ in a detail not shown here. Equal values may be shown once.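 Growth conditions: 96-well plates. Treatment: test compound, 48 hours, 5 concentrations. Analysis: linear interpolation between bracketing concentrations; unreached endpoints set to highest concentration. GI50 is the concentration that inhibits growth by half. TGI: total growth inhibition.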

The record followed here is PubChem BioAssay (NCI).

Test systems include SF-539 CNS; UACC-257 melanoma; RXF 393 renal; CAKI-1 renal; SF-268 CNS; RPMI-8226 leukemia; NCI-H23 lung; SK-MEL-28 melanoma.
What all share (test): inhibition of tumour cell growth, NCI panel, 48 h

For the compound `COc1cc2c(c3oc(-c4ccc(O)cc4)c(O)c(=O)c13)CCC(C)(C)O2`, the GI50 was 0.0241 µM with SF-539 CNS; 0.291 µM with UACC-257 melanoma; 0.0379 µM in the experiment on RXF 393 renal; 0.245 µM in the experiment with CAKI-1 renal; 0.122 µM in the experiment on SF-268 CNS; 0.305 µM in the experiment on RPMI-8226 leukemia. In addition, the GI50 in the experiment on NCI-H23 lung is 0.0836 µM; in the experiment with SK-MEL-28 melanoma it was 0.21 µM. The TGI in the experiment with SF-539 CNS was found to be 0.0586 µM; in the experiment on UACC-257 melanoma, 0.778 µM; with RXF 393 renal, 0.176 µM; in the experiment with CAKI-1 renal it was 1.17 µM; in the experiment with RPMI-8226 leukemia, 0.787 µM; with NCI-H23 lung it was 0.221 µM. The compound also returned a TGI in the experiment with SK-MEL-28 melanoma of 0.93 µM.
For `CN(C)CCNC(=O)c1cc2c3cc(Cl)ccc3[nH]c2c2ncccc12`, the GI50 in the experiment on SF-539 CNS is 1.57 µM; in the experiment with UACC-257 melanoma, 3.92 µM; in the experiment on RXF 393 renal, 1.74 µM; in the experiment on CAKI-1 renal, 3.52 µM; with SF-268 CNS, 2.81 µM; with RPMI-8226 leukemia, 1.78 µM. For the same compound, the GI50 is 6.31 µM with NCI-H23 lung and 2.12 µM in the experiment with SK-MEL-28 melanoma. For the same compound, the TGI in the experiment with SF-539 CNS was 3.14 µM; in the experiment with UACC-257 melanoma, 14.9 µM; in the experiment with RXF 393 renal, 4.28 µM; in the experiment on CAKI-1 renal, 19.6 µM; with SF-268 CNS, 11.8 µM; in the experiment on RPMI-8226 leukemia, 3.84 µM. Further, the results for the TGI in the experiment on NCI-H23 lung and with SK-MEL-28 melanoma were 23.4 µM and 4.18 µM, respectively.
For `COC(=O)[C@@H](C)C[C@H](Cc1ccccc1)NC(=O)c1nc([C@@H](C[C@H](C(C)C)N(C)C(=O)[C@@H](NC(=O)[C@H]2C[C@H](O)CCN2C)C(C)C)OC(C)=O)sc1C(C)C`, the GI50 in the experiment on SF-539 CNS is 0.0159 µM; in the experiment on UACC-257 melanoma, 5.89 µM; in the experiment with RXF 393 renal, 0.025 µM; in the experiment on CAKI-1 renal, 0.115 µM; with SF-268 CNS, 0.00957 µM; in the experiment on RPMI-8226 leukemia, 0.00173 µM. Moreover, the GI50 in the experiment on NCI-H23 lung was 0.0232 µM; in the experiment on SK-MEL-28 melanoma it was 0.0191 µM. Further, the TGI in the experiment on SF-539 CNS is 0.0505 µM; with UACC-257 melanoma, more than 11.1 µM; with RXF 393 renal, more than 11.1 µM; in the experiment with CAKI-1 renal it was more than 9.69 µM; in the experiment on SF-268 CNS, more than 11.1 µM; in the experiment with RPMI-8226 leukemia, more than 9.92 µM. The TGI with NCI-H23 lung and in the experiment with SK-MEL-28 melanoma was more than 11.1 µM throughout.
Take `CCOc1ccc(N(C)c2ccc(/C=C/C3=[N+](C)c4ccccc4C3(C)C)cc2)cc1`: the GI50 is 0.771 µM with SF-539 CNS; 0.188 µM in the experiment on UACC-257 melanoma; 0.471 µM in the experiment on RXF 393 renal; 0.784 µM in the experiment with CAKI-1 renal; 0.933 µM in the experiment with SF-268 CNS; 0.139 µM with RPMI-8226 leukemia. Also, the values for the GI50 in the experiment with NCI-H23 lung and in the experiment with SK-MEL-28 melanoma were 0.125 µM and 0.68 µM, respectively. The TGI with SF-539 CNS worked out at 2.2 µM; in the experiment with UACC-257 melanoma it was 0.861 µM; with RXF 393 renal, 1.95 µM; in the experiment with CAKI-1 renal, 2.48 µM; in the experiment with SF-268 CNS, 2.65 µM; in the experiment on RPMI-8226 leukemia, 0.602 µM. Moreover, the TGI was 1.34 µM in the experiment on NCI-H23 lung and 2.11 µM with SK-MEL-28 melanoma.
With `CC(C)=CC[C@@H]1CC2(CC=C(C)C)C(=O)C(OC3(C(=O)c4ccccc4)C(=O)C4(CC=C(C)C)C[C@@H](CC=C(C)C)C(C)(C)C(CC=C(C)C)(C4=O)C3=O)(C(=O)c3ccccc3)C(=O)C(CC=C(C)C)(C2=O)C1(C)C` (stereo not given in full), the GI50 in the experiment on SF-539 CNS was 1.14 µM; in the experiment with UACC-257 melanoma, 1.4 µM; with RXF 393 renal, 1.13 µM; with CAKI-1 renal it was 1.49 µM; in the experiment on SF-268 CNS, 1.13 µM; in the experiment on RPMI-8226 leukemia it was 1.05 µM. Also, the GI50 was 1.36 µM in the experiment with NCI-H23 lung and 1.18 µM with SK-MEL-28 melanoma. In addition, the TGI in the experiment on SF-539 CNS is 2.65 µM; with UACC-257 melanoma, 3.77 µM; in the experiment with RXF 393 renal, 2.69 µM; in the experiment with CAKI-1 renal it was 5.95 µM; with SF-268 CNS it was 2.89 µM; with RPMI-8226 leukemia it was 2.7 µM. Also, the TGI stood at 4.48 µM in the experiment on NCI-H23 lung and 3.25 µM with SK-MEL-28 melanoma.
On to `Cc1ccc(NC(=O)c2ccc(CN3CCN(C)CC3)cc2)cc1Nc1nc(-c2cccnc2)cs1`, for which the GI50 with SF-539 CNS is 1.7 µM and 1.13 µM; in the experiment on UACC-257 melanoma, 7.9 µM and 7.34 µM; in the experiment with RXF 393 renal, 2.98 µM and 1.9 µM; in the experiment on CAKI-1 renal, 11.6 µM and > 10 µM; in the experiment with SF-268 CNS, 12.6 µM and > 10 µM; with RPMI-8226 leukemia it was 3.19 µM and 2.31 µM. In addition, the GI50 is 12.6 µM and > 10 µM with NCI-H23 lung; 12 µM and 2.66 µM in the experiment with SK-MEL-28 melanoma. Also, the TGI was 6.81 µM and 2.48 µM in the experiment on SF-539 CNS; 20.2 µM and > 10 µM in the experiment with UACC-257 melanoma; 8.41 µM and 4 µM in the experiment on RXF 393 renal; 24.9 µM and > 10 µM in the experiment with CAKI-1 renal; 26.7 µM and > 10 µM in the experiment with SF-268 CNS; 18.2 µM and > 10 µM in the experiment on RPMI-8226 leukemia. In addition, the TGI in the experiment with NCI-H23 lung is 29.7 µM and > 10 µM; with SK-MEL-28 melanoma it was 24.5 µM and 8.57 µM.
